Experimental data: US6322532A, “Sonophoresis method and apparatus” (3M Innovative Properties Company, priority 1999, dated 2001)

Assay: Franz diffusion cell permeation of salicylic acid across cadaver skin with/without flexure mode sonophoresis transducer
Parameters: species or system human
Description: A similar experiment to that described in Example 1 was carried out using salicylic acid. […] About 20 ml donor solution (ppb) with excess (beyond solubility levels) of salicylic acid was added to the upper portion of the Franz cells atop the cadaver skin.

SMILES: O=C(O)c1ccccc1O [salicylic acid]
- average sonophoretic drug flux (active cells, about 2 W/cm^2, about 27 kHz, about 200 V (rms), continuous duty cycle, about 7 cm^2 cadaver skin, first few hours): about 700 micrograms/cm^2 /hr
- average passive drug flux (four passive cells, no sonophoresis transducer, 2 cm^2 cadaver skin, 10 ml receptor fluid, 5 hr experiment): about 200 micrograms/cm^2 /hr
